# Experimental data reported in patent US8742106B2 (Novartis AG, priority 2009, dated 2014).
# Assays:
# [1] = molecular target: human orexin 1 receptors (Homo sapiens (Human), UniProt O43613); assay: Calcium Accumulation in Cells (FLIPR), antagonism of orexin A; format: cell-based; conditions: for inhibition at 10 µM: measured at a concentration of 10 μM of compound, read-out: FLIPR hOx1R % inhibition value; for Ki: antagonism of orexin A, Cheng-Prusoff corrected, read-out: FLIPR hOx1R Ki
# [2] = molecular target: human orexin 2 receptors (Homo sapiens (Human), UniProt O43614); assay: as above; format: cell-based; conditions: for inhibition at 10 µM: measured at a concentration of 10 μM of compound, read-out: FLIPR hOx2R % inhibition value; for Ki: antagonism of orexin A, Cheng-Prusoff corrected, read-out: FLIPR hOx2R Ki
# Sequence of human orexin 2 receptors (O43614 whole entry): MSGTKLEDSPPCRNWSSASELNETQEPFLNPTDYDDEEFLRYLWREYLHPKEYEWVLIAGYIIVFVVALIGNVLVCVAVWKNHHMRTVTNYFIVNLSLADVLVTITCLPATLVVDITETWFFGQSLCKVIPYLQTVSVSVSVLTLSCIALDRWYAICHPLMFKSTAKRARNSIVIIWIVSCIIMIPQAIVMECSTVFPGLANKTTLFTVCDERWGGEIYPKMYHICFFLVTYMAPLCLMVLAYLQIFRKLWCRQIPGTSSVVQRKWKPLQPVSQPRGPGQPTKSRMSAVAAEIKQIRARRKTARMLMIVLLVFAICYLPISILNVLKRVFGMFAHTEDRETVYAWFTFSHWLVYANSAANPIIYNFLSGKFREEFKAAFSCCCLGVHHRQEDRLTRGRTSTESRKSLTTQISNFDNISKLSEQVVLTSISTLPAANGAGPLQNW
# Method in brief: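 Cells expressing human orexin 2 receptor, loaded with Fluo4-AM (2 μM) plus probenecid (0.1 mM) for 1 h, then washed. Antagonism read as inhibition of the orexin A calcium fluorescence signal (FLIPR).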
# Sequence of human orexin 1 receptors (O43613 whole entry): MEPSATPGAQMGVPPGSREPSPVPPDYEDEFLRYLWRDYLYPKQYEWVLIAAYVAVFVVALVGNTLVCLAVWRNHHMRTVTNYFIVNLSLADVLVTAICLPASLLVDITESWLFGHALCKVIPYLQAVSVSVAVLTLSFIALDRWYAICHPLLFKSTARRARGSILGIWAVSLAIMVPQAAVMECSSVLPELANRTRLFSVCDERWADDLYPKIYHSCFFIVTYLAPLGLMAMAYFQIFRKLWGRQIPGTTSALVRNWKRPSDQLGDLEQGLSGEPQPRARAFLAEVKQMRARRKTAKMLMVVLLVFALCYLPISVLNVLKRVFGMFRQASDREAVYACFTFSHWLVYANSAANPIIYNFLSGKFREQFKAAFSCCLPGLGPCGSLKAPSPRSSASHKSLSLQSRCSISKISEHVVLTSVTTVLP
Structure (SMILES),inhibition at 10 µM [1] [%],inhibition at 10 µM [2] [%],Ki [2] [µM],Ki [1] [µM]
"Cc1cnc(CNC(=O)COc2cc(C)c3c(C4CC4)nn(C)c3n2)cn1 [Example 7.2, 2-(3-cyclopropyl-1,4-dimethyl-1H-pyrazolo[3,4-b]pyridin-6-yloxy)-N-((5-methylpyrazin-2-yl)methyl)acetamide]",< 10,15,–,–
"Cc1cc(OCC(=O)NCCCn2ccnc2)nc2c1c(C1CC1)nn2C [Example 7.3, N-(3-(1H-imidazol-1-yl)propyl)-2-(3-cyclopropyl-1,4-dimethyl-1H-pyrazolo[3,4-b]pyridin-6-yloxy)acetamide]",< 10,16,–,–
"Cc1cc(OCC(=O)NCc2ccc3c(c2)CCO3)nc2c1c(C1CC1)nn2C [Example 7.4, 2-(3-cyclopropyl-1H-dimethyl-1H-pyrazolo[3,4-b]pyridin-6-yloxy)-N-((2,3-dihydrobenzofuran-5-yl)methyl)acetamide]",< 10,26,–,–
"Cc1cc(OCC(=O)NCCc2c[nH]c3ccccc23)nc2c1c(C1CC1)nn2C [Example 7.5, N-(2-(1H-indol-3-yl)ethyl)-2-(3-cyclopropyl-1H-dimethyl-1H-pyrazolo[3,4-b]pyridin-6-yloxy)acetamide]",< 10,–,0.479,–
"Cc1cc(OCC(=O)NCC2CCCCC2)nc2c1c(C1CC1)nn2C [Example 7.6, N-(cyclohexylmethyl)-2-(3-cyclopropyl-1,4-dimethyl-1H-pyrazolo[3,4-b]pyridin-6-yloxy)acetamide]",18,< 10,–,–
"Cc1cccc(C(C)NC(=O)COc2cc(C)c3c(C4CC4)nn(C)c3n2)n1 (centres unmarked) [Example 7.7, 2-(3-cyclopropyl-1,4-dimethyl-1H-pyrazolo[3,4-b]pyridin-6-yloxy)-N-(1-(6-methylpyridin-2-yl)ethyl)acetamide]",32,21,–,–
"Cc1cc(OCC(=O)NC2CCCc3ncccc32)nc2c1c(C1CC1)nn2C (centres unmarked) [Example 7.8, 2-(3-cyclopropyl-1H-dimethyl-1H-pyrazolo[3,4-b]pyridin-6-yloxy)-N-(5,6,7,8-tetrahydroquinolin-5-yl)acetamide]",26,20,–,–
"COc1ccc2c(c1)C(NC(=O)COc1cc(C)c3c(C4CC4)nn(C)c3n1)CC2 (centres unmarked) [Example 7.9, 2-(3-cyclopropyl-1,4-dimethyl-1H-pyrazolo[3,4-b]pyridin-6-yloxy)-N-(6-methoxy-2,3-dihydro-1H-inden-1-yl)acetamide]",–,–,0.742,0.877
"Cc1cc(OCC(=O)NCc2cccc3cnn(C)c23)nc2c1c(C1CC1)nn2C [Example 7.10, 2-(3-cyclopropyl-1,4-dimethyl-1H-pyrazolo[3,4-b]pyridin-6-yloxy)-N-((1-methyl-1H-indazol-7-yl)methyl)acetamide]",34,40,–,–
"COc1cccc([C@H](C)NC(=O)COc2cc(C)c3c(C4CC4)nn(C)c3n2)c1 [Example 7.12, (S)-2-(3-cyclopropyl-1,4-dimethyl-1H-pyrazolo[3,4-b]pyridin-6-yloxy)-N-(1-(3-methoxyphenyl)ethyl)acetamide]",–,43,–,0.736
"COc1ccccc1[C@H](C)NC(=O)COc1cc(C)c2c(C3CC3)nn(C)c2n1 [Example 7.13, (S)-2-(3-cyclopropyl-1,4-dimethyl-1H-pyrazolo[3,4-b]pyridin-6-yloxy)-N-(1-(2-methoxyphenyl)ethyl)acetamide]",–,–,0.45,1.54
"Cc1cc(OCC(=O)NCc2ccc(Cl)nc2)nc2c1c(C1CC1)nn2C [Example 7.14, N-((6-chloropyridin-3-yl)methyl)-2-(3-cyclopropyl-1,4-dimethyl-1H-pyrazolo[3,4-b]pyridin-6-yloxy)acetamide]",31,20,–,–
"Cc1cc(OCC(=O)NCc2cccc3[nH]ncc23)nc2c1c(C1CC1)nn2C [Example 7.15, N-((1H-indazol-4-yl)methyl)-2-(3-cyclopropyl-1,4-dimethyl-1H-pyrazolo[3,4-b]pyridin-6-yloxy)acetamide]",26,18,–,–
"COc1ccc(CNC(=O)COc2cc(C)c3c(C4CC4)nn(C)c3n2)cc1Cl [Example 7.16, N-(3-chloro-4-methoxybenzyl)-2-(3-cyclopropyl-1,4-dimethyl-1H-pyrazolo[3,4-b]pyridin-6-yloxy)acetamide]",–,–,1.03,3.63
"Cc1cc(OCC(=O)NC(C)c2ccc3[nH]ccc3c2)nc2c1c(C1CC1)nn2C (centres unmarked) [Example 7.17, N-(1-(1H-indol-5-yl)ethyl)-2-(3-cyclopropyl-1,4-dimethyl-1H-pyrazolo[3,4-b]pyridin-6-yloxy)acetamide]",–,–,0.094,0.414
"Cc1cccnc1CNC(=O)COc1cc(C)c2c(C3CC3)nn(C)c2n1 [Example 7.18, 2-(3-cyclopropyl-1,4-dimethyl-1H-pyrazolo[3,4-b]pyridin-6-yloxy)-N-((3-methylpyridin-2-yl)methyl)acetamide]",< 10,11,–,–

Structure (SMILES),inhibition at 10 µM [1] [%],inhibition at 10 µM [2] [%],Ki [2] [µM],Ki [1] [µM]
"COc1ccc(C(C)NC(=O)COc2cc(C)c3c(C4CC4)nn(C)c3n2)cc1F (centres unmarked) [Example 7.19, 2-(3-cyclopropyl-1,4-dimethyl-1H-pyrazolo[3,4-b]pyridin-6-yloxy)-N-(1-(3-fluoro-4-methoxy-phenyl)ethyl)acetamide]",–,–,0.674,2.62
"Cc1cc(OCC(=O)NC(C)c2cnn(C)c2)nc2c1c(C1CC1)nn2C (centres unmarked) [Example 7.20, 2-(3-cyclopropyl-1,4-dimethyl-1H-pyrazolo[3,4-b]pyridin-6-yloxy)-N-(1-(1-methyl-1H-pyrazol-4-yl)ethyl)acetamide]",34,31,–,–
"Cc1ccnc(C(C)NC(=O)COc2cc(C)c3c(C4CC4)nn(C)c3n2)c1 (centres unmarked) [Example 7.21, 2-(3-cyclopropyl-1,4-dimethyl-1H-pyrazolo[3,4-b]pyridin-6-yloxy)-N-(1-(4-methylpyridin-2-yl)ethyl)acetamide]",< 10,22,–,–
"Cc1csc(C(C)NC(=O)COc2cc(C)c3c(C4CC4)nn(C)c3n2)n1 (centres unmarked) [Example 7.22, 2-(3-cyclopropyl-1,4-dimethyl-1H-pyrazolo[3,4-b]pyridin-6-yloxy)-N-(1-(4-methylthiazol-2-yl)ethyl)acetamide]",40,32,–,–
"Cc1cc(OCC(=O)NC(C)c2nc3ccccc3s2)nc2c1c(C1CC1)nn2C (centres unmarked) [Example 7.23, N-(1-(benzo[d]thiazol-2-yl)ethyl)-2-(3-cyclopropyl-1,4-dimethyl-1H-pyrazolo[3,4-b]pyridin-6-yloxy)acetamide]",–,–,0.15,0.564
"Cc1cc(OCC(=O)NC2CCCc3c2cnn3C)nc2c1c(C1CC1)nn2C (centres unmarked) [Example 7.24, 2-(3-cyclopropyl-1,4-dimethyl-1H-pyrazolo[3,4-b]pyridin-6-yloxy)-N-(1-methyl-4,5,6,7-tetrahydro-1H-indazol-4-yl)acetamide]",28,25,–,–
"Cc1cc(OCC(=O)NC(C)c2cn3ccsc3n2)nc2c1c(C1CC1)nn2C (centres unmarked) [Example 7.25, 2-(3-cyclopropyl-1,4-dimethyl-1H-pyrazolo[3,4-b]pyridin-6-yloxy)-N-(1-(imidazo[2,1-b]thiazol-6-yl)ethyl)acetamide]",–,–,0.584,1.56
"Cc1cc(OCC(=O)N[C@@H](C)CCc2ccccc2)nc2c1c(C1CC1)nn2C [Example 7.26, (S)-2-(3-cyclopropyl-1,4-dimethyl-1H-pyrazolo[3,4-b]pyridin-6-yloxy)-N-(4-phenylbutan-2-yl)acetamide]",–,–,0.184,1.64
"COc1ccc(CNC(=O)COc2cc(C)c3c(C4CC4)nn(C)c3n2)c(OC)c1 [Example 7.27, 2-(3-cyclopropyl-1,4-dimethyl-1H-pyrazolo[3,4-b]pyridin-6-yloxy)-N-(2,4-dimethoxybenzyl)acetamide]",48,–,0.472,–
"Cc1ccc2c(c1)C(NC(=O)COc1cc(C)c3c(C4CC4)nn(C)c3n1)CC2 (centres unmarked) [Example 7.28, 2-(3-cyclopropyl-1,4-dimethyl-1H-pyrazolo[3,4-b]pyridin-6-yloxy)-N-(6-methyl-2,3-dihydro-1H-inden-1-yl)acetamide]",34,37,–,–
"Cc1cccc(C(C)NC(=O)COc2cc(C)c3c(C4CC4)nn(C)c3n2)c1 (centres unmarked) [Example 7.29, 2-(3-cyclopropyl-1,4-dimethyl-1H-pyrazolo[3,4-b]pyridin-6-yloxy)-N-(1-m-tolylethyl)acetamide]",–,–,0.9,1.8
"Cc1cc(OCC(=O)NC(C)c2nc3ccc(Cl)cc3s2)nc2c1c(C1CC1)nn2C (centres unmarked) [Example 7.30, N-(1-(6-chlorobenzo[d]thiazol-2-yl)ethyl)-2-(3-cyclopropyl-1,4-dimethyl-1H-pyrazolo[3,4-b]pyridin-6-yloxy)acetamide]",–,26,–,0.938
"Cc1ccc2c(cnn2C)c1CNC(=O)COc1cc(C)c2c(C3CC3)nn(C)c2n1 [Example 7.31, 2-(3-cyclopropyl-1,4-dimethyl-1H-pyrazolo[3,4-b]pyridin-6-yloxy)-N-((1,5-dimethyl-1H-indazol-4-yl)methyl)acetamide]",–,–,0.833,0.857
"COc1cccc2c1CCCC2NC(=O)COc1cc(C)c2c(C3CC3)nn(C)c2n1 (centres unmarked) [Example 7.32, 2-(3-cyclopropyl-1,4-dimethyl-1H-pyrazolo[3,4-b]pyridin-6-yloxy)-N-(5-methoxy-1,2,3,4-tetrahydronaphthalen-1-yl)acetamide]",–,–,0.301,0.138
"CCOc1ccc(CNC(=O)COc2cc(C)c3c(C4CC4)nn(C)c3n2)cc1 [Example 7.33, 2-(3-cyclopropyl-1,4-dimethyl-1H-pyrazolo[3,4-b]pyridin-6-yloxy)-N-(4-ethoxybenzyl)acetamide]",–,24,–,3.17
